A compilation of properties of binary mixtures (doi:10.7498/aps.66.196101)

Assay: xn = mol fraction of the nth substance listed
Settings: 100 kPa

CCCn1cc[n+](C)c1.N[C@@H](CO)C(=O)[O-] + O
Settings	electrical conductivity, x1 = 0.8651 [S/m]	electrical conductivity, x1 = 0.881 [S/m]	electrical conductivity, x1 = 0.8954 [S/m]	electrical conductivity, x1 = 0.9112 [S/m]	electrical conductivity, x1 = 0.9275 [S/m]	viscosity, x1 = 0.878 [mPa·s]	viscosity, x1 = 0.8933 [mPa·s]	viscosity, x1 = 0.909 [mPa·s]	viscosity, x1 = 0.9253 [mPa·s]	viscosity, x1 = 0.9422 [mPa·s]
298.15 K	0.0244	0.0231	0.0219	0.0204	0.0191	–	2259	–	–	2495
303.15 K	0.0369	0.0356	0.0339	0.0321	0.0301	1399	1414	1439	1477	–
308.15 K	0.0559	0.0538	0.0521	0.0497	0.0469	–	923	942	966	1000
313.15 K	–	0.0775	–	–	0.0685	617	624	633	650	670
318.15 K	0.112	0.109	0.106	–	–	428	–	–	447	462
323.15 K	0.154	–	–	0.14	0.135	300	306	312	322	–
328.15 K	0.204	–	0.194	0.187	0.182	229	231	234	–	245
333.15 K	0.268	0.261	0.256	–	0.241	–	172.3	174.6	178.4	183
338.15 K	0.342	0.333	0.327	–	–	130.5	131.1	132.4	–	137.2

CCn1cc[n+](C)c1.N[C@@H](CO)C(=O)[O-] + O
electrical conductivity [S/m]
Settings	303.15 K	308.15 K	313.15 K	318.15 K	323.15 K	328.15 K	333.15 K	338.15 K
x1 = 0.8695	0.102	0.14	0.176	–	0.276	0.348	–	0.526
x1 = 0.8836	0.1	0.138	0.174	–	0.273	–	–	0.522
x1 = 0.8982	0.0982	0.135	0.172	0.218	0.271	0.343	0.429	0.518
x1 = 0.9131	0.0964	–	–	0.216	–	0.341	0.426	0.515
x1 = 0.9275	–	0.13	–	0.213	0.266	0.338	0.423	–
